This is an account of results in ChEMBL document CHEMBL1201862, “PubChem BioAssay data set” (2004).

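The compound was tested at five concentrations on cells cultured in 96-well plates, with a 48-hour exposure period. GI50 is the concentration that inhibits growth by half.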 Activity calls are given as the source filed them. No stated cut-off is given here; in the data, active = GI50 up to about 1.1 µM and inactive = higher. A value given as a limit tells only on which side of the number the result lay.

Among the test systems are BT-549; MDA-N; DMS-273; HOP-18; KM-20L2; M19-MEL; SNB-78.
Holding throughout (assay): DTP human tumour cell line panel, 48 h

In the case of `Cc1cc2c(cc1Cl)SC(NNC(=O)c1ccncc1)=NS2(=O)=O`, the GI50 with BT-549 and in the experiment on MDA-N was > 10 µM (inactive) each time.
Take `O=c1[nH]c(=O)n(COCCO)cc1-c1ccccc1`: the GI50 in the experiment with MDA-N is > 100 µM (inactive).
Consider `COc1cc(/C=C2\C[C@H]3[C@@H]4CC=C5C[C@@H](N6CCCC6)CC[C@]5(C)[C@H]4CC[C@]3(C)[C@H]2OC(C)=O)cc(OC)c1OC`, for which the GI50 is 14.9 µM (inactive) with BT-549 and 10.9 µM (inactive) in the experiment on MDA-N.
As to `CC(=O)c1c(SCCN2CCCC2)n(-c2ccccc2)c(=S)n(-c2ccccc2)c1=O`, the GI50 with BT-549 was 14.5 µM (inactive); in the experiment on MDA-N, 7.03 µM (inactive).
Regarding `CC(C)=CCC/C(C)=C/CC/C(C)=C/CC/C(C)=C/CC/C(C)=C\CC/C(C)=C/CC/C(C)=C/CC/C(C)=C/Cc1cc(O)ccc1O`, the figures for the GI50 in the experiment with BT-549 and in the experiment on MDA-N were 1.98 µM (inactive) and 0.236 µM (active), respectively.
Take `CC(C)(C)C(=O)C(C(=O)C(C)(C)C)C(=O)C(C)(C)C`: the GI50 in the experiment on MDA-N was > 100 µM (inactive).
Consider `Cc1ccc(S(=O)(=O)N2CCCCC2CCO)cc1` (stereo unspecified), for which the GI50 with DMS-273, with HOP-18, in the experiment on KM-20L2, with M19-MEL and with SNB-78 was > 100 µM (inactive) throughout.
Take `O=C(c1cccnc1)N1N=C(c2ccccc2)CC1(O)c1cc(F)c(Cl)cc1Cl` (stereo unspecified): the values for the GI50 with BT-549 and in the experiment with MDA-N were 20.3 µM (inactive) and 28.6 µM (inactive), respectively.
For `CN/C(=N\n1cnnc1)OC`, the GI50 in the experiment with MDA-N is > 100 µM (inactive).
Consider `CCCCC(=O)Nc1ccc2c(C)cc(-c3ccc(-c4cc(-c5ccc(C)cc5)cc(-c5ccc(-c6cc(C)c7ccc(NC(=O)CCCC)nc7n6)cc5)n4)cc3)nc2n1`, for which the GI50 in the experiment on BT-549 and in the experiment on MDA-N was > 100 µM (inactive) throughout.
With `N#CC(C#N)=c1c(=O)c2c3ccccc3cc3cccc1c32`, the GI50 with BT-549 and with MDA-N was > 100 µM (inactive) each time.
As for `Cc1cc(=O)c2cc(/N=C/c3ccc([N+](=O)[O-])o3)ccc2o1`, in the experiment on BT-549, the GI50 was 72.6 µM (inactive).
Consider `C=C1CC[C@H](O)C(C)(C)[C@@H]1CC/C(C)=C/CC/C=C(\C)CC/C=C(\C)CCC=C(C)C`, for which the GI50 in the experiment on BT-549 and with MDA-N was > 100 µM (inactive) in each case.
Take `CCCC(=O)Nc1cc([N+](=O)[O-])c([N+](=O)[O-])cc1OC`: the results for the GI50 in the experiment with BT-549 and in the experiment on MDA-N were 17.3 µM (inactive) and 15.1 µM (inactive), respectively.
`CC12CCC(CC1(Cl)Cl)C2` (stereo unspecified): the GI50 in the experiment on BT-549 is > 100 µM (inactive).
Turning to `O=C(O)c1ccccc1/C=N\N=C1NCCN1`, the figures for the GI50 in the experiment with BT-549 and with MDA-N were 49.9 µM (inactive) and > 100 µM (inactive), respectively.
On the same counts, the results for `C[C@@H](CC(O)C(O)C(C)(C)O)C1CCC23CC12CCC1[C@@]2(C)CCC(=O)C(C)(C)C2CC(OC2OC(CO)C(O)C(O)C2O)[C@]13C` (stereo partly specified) are > 10 µM (inactive) and > 10 µM (inactive).
Consider `O=c1c2ccccc2n2c(-c3ccccc3O)nnc2n1-c1ccccc1`, for which the GI50 in the experiment on MDA-N was > 100 µM (inactive).
Regarding `Cn1c(=O)c2nc(CS(=O)(=O)Cc3nc4c(=O)n(C)c(=O)n(C)c4[nH]3)[nH]c2n(C)c1=O`, the GI50 in the experiment with BT-549 and in the experiment with MDA-N was > 100 µM (inactive) in each case.
With `O=C(ON=C1c2ccccc2C(Br)C(Br)c2ccccc21)c1cc([N+](=O)[O-])cc([N+](=O)[O-])c1` (stereo unspecified), the GI50 in the experiment with MDA-N was 22.1 µM (inactive).
For `CNC(=O)c1cc2nc3ccccc3c(=O)n2c2ccccc12`, the GI50 in the experiment with BT-549 was > 10 µM (inactive).
On to `CN(N)C(=O)NCCCl`, for which the GI50 with BT-549 and in the experiment on MDA-N was > 100 µM (inactive) in each case.
Regarding `O=c1c2ccccc2nc(-c2ccccc2)n1NCC1(O)OCC(O)C(O)C1O` (stereo unspecified), the GI50 in the experiment on DMS-273 is 60.5 µM (inactive); in the experiment on HOP-18, > 100 µM (inactive); in the experiment with KM-20L2 it was > 100 µM (inactive); with M19-MEL, 49.8 µM (inactive); in the experiment with SNB-78, > 100 µM (inactive).
As for `CC(C)[C@@H](C)[C@@]1(C)C[C@@H]1[C@@H](C)[C@H]1CC[C@@H]([C@@H]2CC=C3C[C@@H](O)CC[C@]3(C)C2=O)[C@]1(C)CCO`, the GI50 with BT-549 is 16.6 µM (inactive); with MDA-N, 13.3 µM (inactive).
`CN(CCCNC(=O)c1cn(C)c2c1ccc1cc(Cl)ccc12)CCCNC(=O)c1cn(C)c2c1ccc1cc(Cl)ccc12`: the GI50 was 8.99 µM (inactive) in the experiment on BT-549 and 2.23 µM (inactive) in the experiment on MDA-N.
For the compound `Cc1cc(C)c(NC(=S)NC(=O)c2ccccc2)cc1C`, the GI50 in the experiment on BT-549 was > 100 µM (inactive); in the experiment with MDA-N it was 78.9 µM (inactive).
Regarding `NC(=O)C1CCCN1Cc1ccc2c(c1)OCO2` (stereo unspecified), the GI50 with BT-549 and in the experiment with MDA-N was > 100 µM (inactive) throughout.
As to `CC(C)(C)OC(=O)N1CC(C)(C)N2C(=O)C3(CCCO3)C12` (stereo unspecified), the GI50 was 37.8 µM (inactive) in the experiment on DMS-273; > 100 µM (inactive) in the experiment on HOP-18; > 100 µM (inactive) with KM-20L2; > 100 µM (inactive) in the experiment with M19-MEL; > 100 µM (inactive) with SNB-78.
For the compound `C=Cc1c(C)c2cc3nc(c4c5[nH]c(cc6nc(cc1[nH]2)C(C)=C6CC)c(C)c5C(=O)C4C(=O)OC)C(CCC(=O)OC)C3C` (stereo unspecified), the GI50 in the experiment with BT-549 and with MDA-N was > 100 µM (inactive) each time.
In the case of `COc1ccc(C2=NN=C3C(c4ccccc4)=Nc4ccccc4N3C2)cc1`, the GI50 with BT-549 is 40 µM (inactive); in the experiment on MDA-N it was 49.1 µM (inactive).
For `CCOC(=O)CCC(NC(=O)c1ccc(CNc2nc3ccccc3nc2C(=O)OCC)cc1)C(=O)OCC` (stereo unspecified), the GI50 in the experiment on MDA-N was > 100 µM (inactive).
On to `CCC(C)C1NC(=O)C(NC(=O)c2c3nc4c(C(=O)NC5C(=O)NC(C(C)CC)C(=O)N6CCCC6C(=O)N(C)CC(=O)N(C)C(C(C)C)C(=O)OC5C)ccc(C)c4oc-3c(C)c(=O)c2O)C(C)OC(=O)C(C(C)C)N(C)C(=O)CN(C)C(=O)C2CCCN2C1=O` (stereo unspecified), for which the GI50 in the experiment with BT-549 was 5.81 µM (inactive); with MDA-N, 4.21 µM (inactive).
In the same order, the values of `C1=C(c2ccccc2)NC2=N[C@H]3CCCC[C@@H]3N2C1c1ccccc1` (stereo partly specified) are 11.4 µM (inactive) and 15.5 µM (inactive).
For the compound `C/C(=N\NC(N)=S)c1sc(-n2nc(-c3ccccc3)cc2-c2ccccc2)nc1C`, the GI50 in the experiment with BT-549 and with MDA-N was > 100 µM (inactive) in each case.
As for `O=c1c2cc(S(=O)(=O)O)ccc2nc(COc2ccc(Oc3ccc(Cl)cc3Cl)cc2)n1C(=S)Nc1ccc(Cl)cc1`, the results for the GI50 with BT-549 and in the experiment with MDA-N were 19.6 µM (inactive) and 22.1 µM (inactive), respectively.
`CCCc1cn2c(/C=N/NC(=N)N)c(-c3ccc([N+](=O)[O-])cc3)nc2s1`: in the experiment with BT-549, the GI50 was 1.92 µM (inactive).
Regarding `CN1CCN(C(=S)N(C(=O)c2ccco2)c2ccccc2)CC1`, the GI50 in the experiment on BT-549 and with MDA-N was > 100 µM (inactive) throughout.
For the compound `Cc1ccc(Nc2nc(O)c3[nH]cnc3n2)cc1CO`, the GI50 in the experiment on BT-549 is 14.9 µM (inactive).
Regarding `Nc1ncc(Cl)c(NCC2(CO)CC(CCc3ccccc3)C2)n1` (stereo unspecified), the GI50 in the experiment on BT-549 and with MDA-N was > 100 µM (inactive) throughout.
As for `O=c1[nH]c(Nc2nc3ccccc3[nH]2)nc(O)c1-c1ccccc1`, the GI50 with BT-549 and in the experiment on MDA-N was > 100 µM (inactive) throughout.
As to `Fc1c(F)c(C(F)(F)F)c(F)c(F)c1N/N=C/c1cn(Cc2ccccc2)c2ccccc12`, in the experiment with BT-549, the GI50 is 30.2 µM (inactive).
For the compound `Cc1ccc2c(c1)C(=O)c1[nH]c3ccc(F)cc3c1CO2`, the GI50 in the experiment on BT-549 is 31.1 µM (inactive); in the experiment with MDA-N, > 100 µM (inactive).
On the same counts, the results for `CC(C)=CCN1CC(C)C(=O)Nc2cc(Cl)ccc21` (stereo unspecified) are 18.7 µM (inactive) and 26 µM (inactive).
Take `CCCCCCNc1n[nH]c(=O)c2c1nnn2Cc1ccccc1`: the GI50 in the experiment on BT-549 and in the experiment with MDA-N was > 100 µM (inactive) each time.
As for `Cc1ccc(S(=O)(=O)NC(=O)NC(Cc2ccc(O)c(O)c2)C(=O)O)cc1` (stereo unspecified), the GI50 in the experiment on BT-549 and in the experiment on MDA-N was > 100 µM (inactive) each time.
For `O=c1oc2cccnc2n1CCCCN1CCN(c2ccccc2)CC1`, the GI50 in the experiment with MDA-N is > 100 µM (inactive).
On to `CCOC(=O)CC(=O)C(=O)NN=C1NCCN1`, for which the GI50 in the experiment with BT-549 and in the experiment with MDA-N was > 100 µM (inactive) in each case.
On to `C/C=C/C(CC(O)(C(F)(F)F)C(F)(F)F)=N/NC(N)=S`, for which the GI50 in the experiment on BT-549 and with MDA-N was > 10 µM (inactive) each time.
For the compound `COc1ccc(CC(=O)N2CCC3(C)CC(=O)CC=C23)cc1OC` (stereo unspecified), the GI50 with BT-549 and in the experiment with MDA-N was > 100 µM (inactive) throughout.
In the case of `CCOc1cc2c(cc1O)CC[C@@H]1[C@@H]2CC[C@]2(C)C(OS(=O)OC3CC[C@@H]4[C@H]5CCc6cc(O)c(OCC)cc6[C@@H]5CC[C@@]34C)CC[C@@H]12` (stereo partly specified), the GI50 in the experiment with BT-549 is 1.81 µM (inactive); with MDA-N it was 0.117 µM (active).
For `CC[C@]12C=CCN3CCC4(c5cc([C@@]6(C(=O)OC)CC7CN(CCc8c6[nH]c6ccccc86)C[C@@H]6CCC[C@H]76)c(OC)cc5N(C)C4[C@](O)(C(=O)OC)C1OC(C)=O)C32` (stereo partly specified), the GI50 in the experiment with KM-20L2 is 0.126 µM (active); in the experiment on M19-MEL, 0.267 µM (active); with MDA-N it was 0.00363 µM (active); in the experiment on SNB-78 it was 0.237 µM (active).
As to `COC(=O)/C=C/CCC#Cc1ccccc1C#CCC/C=C/C(=O)OC`, the GI50 with BT-549 was 7.55 µM (inactive); in the experiment on MDA-N, 4.47 µM (inactive).
Consider `NCCCSCC(=O)O`, for which the GI50 with DMS-273, in the experiment with KM-20L2, in the experiment with M19-MEL and in the experiment on SNB-78 was > 100 µM (inactive) each time.
In the case of `Cc1cc(C)c2c(c1)CC1(Cc3cc(C)c(C)cc3C1=O)C2=O` (stereo unspecified), the GI50 with BT-549 is > 100 µM (inactive).
Turning to `C=C(C)[C@@H](O)[C@H](O)C[C@H](C)C1CC[C@]2(C)C1=CC[C@@H]1[C@@]3(C)CC[C@@H](OC(C)=O)C(C)(C)[C@@H]3C[C@@H](OC3OC(COC(C)=O)C(O)C(O)C3O)[C@]12C` (stereo partly specified), the GI50 was 3.33 µM (inactive) in the experiment on BT-549 and 2.81 µM (inactive) with MDA-N.
Consider `c1csc(-c2ccc(-c3ccc(-c4cccs4)s3)s2)c1`, for which the GI50 with BT-549 and in the experiment with MDA-N was > 100 µM (inactive) in each case.
Take `CCc1cc(Cc2cc(Cl)c(NC(=O)C(=O)C3NC(=O)NC3=O)c(CC)c2)cc(Cl)c1NC(=O)C(=O)C1NC(=O)NC1=O` (stereo unspecified): the GI50 in the experiment with DMS-273 is 20.4 µM (inactive); with HOP-18, > 100 µM (inactive); in the experiment with KM-20L2 it was 33.9 µM (inactive); with M19-MEL it was 51.3 µM (inactive); in the experiment on SNB-78, 75.7 µM (inactive).

A word on the GI50: it is the concentration that inhibits growth by half.
